Assay [1] concerns uterine cancers, both of the cervix and the endometrium. In words: European phase I trial of gimatecan as single therapeutic agent in patients with advanced cancers. It counts as in vivo. The protocol: In the light of this preclinical evidence, a European phase I trial was conducted in which gimatecan was administered as a single therapeutic agent with different administration regimens. The patients studied were affected by advanced cancers for which curative or standard therapy was no longer indicated. Although the aim of the study was to assess the tolerability of the treatment with gimatecan, in the course of this clinical trial gimatecan produced a number of lasting objective clinical responses. Particularly worthy of mention are the responses of a number of patients with uterine cancers, both of the cervix and the endometrium, including forms which had received substantial previous treatments and presented metastatic disease.
These responses were subjected to two independent assessments by experts not taking part in the clinical trial, who confirmed the observations.

Assay [2] is described as follows: preclinical trials in vivo. An excerpt: Gimatecan is a new anticancer compound that has shown a high therapeutic index in preclinical trials in vivo. Moreover, gimatecan is characterised by an anticancer activity that is maintained with different administration regimens, both intermittent and prolonged.

In the case of `CC[C@@]1(O)C(=O)OCc2c1cc1n(c2=O)Cc2c-1nc1ccccc1c2/C=N/OC(C)(C)C` [gimatecan, 7-terbutoxyiminomethylcamptothecin], the objective clinical response result in assay [1] (patients with uterine cancers (cervix and endometrium), incl. substantially pretreated and metastatic disease, assessed by computed tomography, confirmed by two independent assessments) was “partial responses”. Also, the “reduction of the tumour lesion or lesions” value in assay [1] (responding patients with uterine cancers, diagnostic imaging such as computed tomography, definition of partial response) was “more than 30%”. In addition, the therapeutic index entry in assay [2] was “high”.

The record behind these values is patent US7700613B2, “Use of 7-t-butoxyiminomethylcamptothecin for the preparation of a medicament for the treatment of uterine neoplasms” (Sigma-Tau Farmaceutiche Riunite, S.p.A., priority 2004, dated 2010).
